Data on eight molecules can be found in patent US7544694B2, “Substituted diaza-spiro-[5.5]-undecane derivatives and their use as neurokinin antagonists” (Janssen Pharmaceutica N.V., priority 2004, dated 2009).

The target in one data set is T1, NK3 (Homo sapiens, UniProt P29371).
T1 sequence (P29371 1-465): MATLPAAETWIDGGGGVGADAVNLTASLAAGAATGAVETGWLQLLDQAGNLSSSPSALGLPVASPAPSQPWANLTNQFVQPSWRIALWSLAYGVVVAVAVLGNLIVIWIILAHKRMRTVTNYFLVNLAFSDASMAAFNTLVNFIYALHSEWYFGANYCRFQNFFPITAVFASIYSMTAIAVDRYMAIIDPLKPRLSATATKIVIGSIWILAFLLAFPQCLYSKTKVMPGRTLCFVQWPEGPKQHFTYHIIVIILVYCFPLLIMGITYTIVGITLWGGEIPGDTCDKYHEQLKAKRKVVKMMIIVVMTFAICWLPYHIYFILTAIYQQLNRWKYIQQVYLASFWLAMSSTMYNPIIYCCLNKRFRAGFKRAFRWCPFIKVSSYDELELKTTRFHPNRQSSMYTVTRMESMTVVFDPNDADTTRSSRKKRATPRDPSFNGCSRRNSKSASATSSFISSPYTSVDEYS
The data set is described as follows: Signal transduction (ST), intracellular Ca++ (FLIPR), NK3. The following applies: antagonist, read-out: NK3 pIC50 (converted). The class given is cell-based.

The target of the next data set is T2, NK2 (Homo sapiens, UniProt P21452).
T2 sequence (P21452 1-398): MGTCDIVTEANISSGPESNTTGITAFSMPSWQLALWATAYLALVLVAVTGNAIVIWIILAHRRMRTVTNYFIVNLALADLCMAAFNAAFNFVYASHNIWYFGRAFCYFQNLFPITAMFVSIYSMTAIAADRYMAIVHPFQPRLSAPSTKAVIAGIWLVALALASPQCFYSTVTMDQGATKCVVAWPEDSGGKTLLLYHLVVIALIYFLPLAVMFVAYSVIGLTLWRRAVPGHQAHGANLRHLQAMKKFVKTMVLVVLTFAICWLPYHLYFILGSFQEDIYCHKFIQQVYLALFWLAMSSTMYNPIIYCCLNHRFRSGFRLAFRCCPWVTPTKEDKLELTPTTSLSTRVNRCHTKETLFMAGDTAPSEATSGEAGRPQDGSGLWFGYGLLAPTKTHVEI
As to the kind of experiment: Signal transduction (ST), intracellular Ca++ (FLIPR), NK2. The class given is cell-based. The following applies: antagonist, read-out: NK2 pIC50 (converted).

Another data set has as its target NK1 (Homo sapiens, UniProt P25103). The data set is described as follows: Signal transduction (ST), intracellular Ca++ (FLIPR), functional NK1 antagonistic activity. Format: cell-based. The following applies: antagonist, read-out: NK1 pIC50 (converted). The method, boiled down: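 Confluent cells were loaded with 2 μM Fluo3 for 1 h at 37° C, then washed into Krebs buffer pH 7.4 with 1.25 mM CaCl2 and 2.5 mM probenecid. Antagonists were preincubated 20 min at RT before agonist addition. Peak Ca++ transients were read by FLIPR, with EC50 or IC50 from sigmoidal non-linear regression.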

What is called melting point is the temperature of the solid-liquid transition.

Where a name gives a salt, the structure may show the parent alone.

NK1, sequence (P25103 whole entry): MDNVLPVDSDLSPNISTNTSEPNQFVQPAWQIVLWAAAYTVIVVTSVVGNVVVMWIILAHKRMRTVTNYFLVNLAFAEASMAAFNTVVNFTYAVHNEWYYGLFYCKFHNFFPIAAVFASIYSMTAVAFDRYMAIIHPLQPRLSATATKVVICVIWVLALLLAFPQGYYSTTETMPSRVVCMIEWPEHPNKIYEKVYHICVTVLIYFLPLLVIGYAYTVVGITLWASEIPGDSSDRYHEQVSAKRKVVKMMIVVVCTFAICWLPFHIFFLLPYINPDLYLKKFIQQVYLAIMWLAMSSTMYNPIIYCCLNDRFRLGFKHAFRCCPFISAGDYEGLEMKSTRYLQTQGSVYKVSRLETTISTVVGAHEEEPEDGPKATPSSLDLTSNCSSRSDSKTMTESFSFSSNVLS

`CC(C)(C)OC(=O)N1CCC2(CC1)CCN(C1CCN(C(=O)c3cc(C(F)(F)F)cc(C(F)(F)F)c3)C(Cc3ccc(Cl)c(Cl)c3)C1)CC2` (stereo not shown) [Compound 130] yielded a melting point of 80 °C.
The molecule `O=C(C1CC1)N1CCC2(CC1)CCN(C1CCN(C(=O)c3cc(C(F)(F)F)cc(C(F)(F)F)c3)C(Cc3ccccc3)C1)CC2` (stereo not shown) [Compound 3] came in with a melting point of 160 °C. Also, the IC50 at NK3 was 1.51 µM. Moreover, on NK2, the IC50 is 1.1 µM. Further, the IC50 on NK1 was 0.0372 µM.
With `O=C(c1cc(C(F)(F)F)cc(C(F)(F)F)c1)N1CCC(N2CCC3(CCN(Cc4ccccc4)CC3)CC2)CC1Cc1ccccc1` (stereo not shown) (as salt: hydrochloric acid salt) [Compound 5], the melting point was found to be 183 °C.
Same read-out and setting: as for `O=C(c1cc(C(F)(F)F)cc(C(F)(F)F)c1)N1CCC(N2CCC3(CC2)CCN(S(=O)(=O)c2cccs2)CC3)CC1Cc1ccccc1` (stereo not shown) (as salt: oxalate) [Compound 92], the figure is 132 °C.
`O=C(c1ccsc1)N1CCC2(CC1)CCN(C(=O)[C@H]1CCN(C(=O)c3cc(C(F)(F)F)cc(C(F)(F)F)c3)[C@H](Cc3ccccc3)C1)CC2` [Compound 189]: the IC50 was above 10 µM at NK3, 6.76 µM at NK2 and 0.0288 µM at NK1.
The like results for `O=C(c1ccccc1Cl)N1CCC2(CC1)CCN([C@H]1CCN(C(=O)c3cc(C(F)(F)F)cc(C(F)(F)F)c3)[C@H](Cc3ccccc3)C1)CC2` [Compound 42] were, in that order, 9.33 µM, 8.91 µM and 0.0617 µM.
The like results for `O=C(c1cnc2ccccc2n1)N1CCC2(CC1)CCN([C@H]1CCN(C(=O)c3cc(C(F)(F)F)cc(C(F)(F)F)c3)[C@H](Cc3ccccc3)C1)CC2` [Compound 66] were, in that order, 6.92 µM, 3.72 µM and 0.0661 µM.
With `O=C(Cn1cnnn1)N1CCC2(CC1)CCN([C@H]1CCN(C(=O)c3cc(C(F)(F)F)cc(C(F)(F)F)c3)[C@H](Cc3ccccc3)C1)CC2` [Compound 77], the IC50 at NK3 is above 10 µM; at NK2, around 8.13 µM; on NK1 it was 0.0457 µM.
